This is an account of results in patent US20120148690A1, “SKIN BARRIER FUNCTION RECOVERY ACCELERATOR” (SHISEIDO COMPANY, LTD., priority 2010, published 2012).

Assay [1] addresses T1, TRPA1 (Mus musculus, UniProt Q8BLA8).
T1 construct: TRPA1 in mouse epidermis was determined to positively immunostained; from tissue; host or cells: skin (epidermis) of living male HR-1 hairless mice
Nature of the assay: Barrier recovery after tape stripping, measured by transepidermal water loss (TEWL). In kind it is in vivo, hairless mice. The settings on record: for Barrier recovery (TEWL recovery rate): local application of 100 μl of 0.5 mM agonist solution immediately after tape stripping.
Method: Male hairless mice age 7 to 10 weeks (HR-1, Hoshino Laboratory Animals, Inc., Japan) were used in all experiments. Measurement of skin barrier function, barrier destruction and application of test samples were carried out while the animals were anesthetized with Nembutal.
Permeability barrier function was evaluated on the basis of measurement results for transepidermal water loss (TEWL) obtained using an electrical moisture analyzer (Meeco Inc.) in the manner previously described (Denda, et al., J. Invest. Dermatol., 111, 858-863 (1998): Non-Patent Document 10). In the barrier recovery experiment, treatment was carried out on the animals consisting of repeatedly carrying out tape stripping on skin on both sides of the abdomen until TEWL reached 7 to 10 mg/cm^2/hr. The effects of each treatment were investigated by measuring at two locations on the sides of the abdomen using four mice. Next, TEWL values at the same sites were measured at 1, 3, 6 and 24 hours after barrier destruction. In order to avoid the effects of circadian rhythm, the speed of barrier recovery was investigated immediately after destroying the skin barrier between the hours of 7:00 AM and 8:00 AM. The results for barrier recovery were expressed in terms of recovery rate (%). This is because the degree of barrier destruction varies from day to day. Recovery rate was calculated for each mouse using the following formula:
[(TEWL immediately after barrier destruction−TEWL at indicated time)/(TEWL immediately after barrier destruction−TEWL basal value)]×100%
The effects of TRPA1 agonist on undamaged skin of hairless mice were first evaluated. The skin permeability barrier was destroyed by tape stripping followed immediately thereafter by application of 100 μl of agonist solution. […] Next, the surface of the skin on one side of the abdomen was chilled (10 to 15° C.) for 1 minute using a cold insulator. The other side of the abdomen was maintained at 35 to 36° C. using a heating pad. The temperatures of both sides of the abdomen were monitored with a thermometer (Data Logger Thermometer MT-309, Mother Tool Co., Ltd.).

The target in assay [2] is T1, TRPA1. Put plainly: Electron microscopy of lamellar body secretion between stratum corneum and stratum granulosum. The format is in vivo, hairless mice. The settings on record: pretreatment with antagonist; short exposure to low temperature; FIG. 4c.
Assay [3] concerns the target TRPV1 (Homo sapiens, UniProt Q8NER1). To be noted: cited from earlier work.
Assay [4] has as its target TRPV4 (Homo sapiens, UniProt Q9HBA0). To be noted: common TRP inhibitor; TRPV4 activated by heat (36 to 40° C.) or agonist; cited from earlier work.

T1 sequence (Q8BLA8 whole entry): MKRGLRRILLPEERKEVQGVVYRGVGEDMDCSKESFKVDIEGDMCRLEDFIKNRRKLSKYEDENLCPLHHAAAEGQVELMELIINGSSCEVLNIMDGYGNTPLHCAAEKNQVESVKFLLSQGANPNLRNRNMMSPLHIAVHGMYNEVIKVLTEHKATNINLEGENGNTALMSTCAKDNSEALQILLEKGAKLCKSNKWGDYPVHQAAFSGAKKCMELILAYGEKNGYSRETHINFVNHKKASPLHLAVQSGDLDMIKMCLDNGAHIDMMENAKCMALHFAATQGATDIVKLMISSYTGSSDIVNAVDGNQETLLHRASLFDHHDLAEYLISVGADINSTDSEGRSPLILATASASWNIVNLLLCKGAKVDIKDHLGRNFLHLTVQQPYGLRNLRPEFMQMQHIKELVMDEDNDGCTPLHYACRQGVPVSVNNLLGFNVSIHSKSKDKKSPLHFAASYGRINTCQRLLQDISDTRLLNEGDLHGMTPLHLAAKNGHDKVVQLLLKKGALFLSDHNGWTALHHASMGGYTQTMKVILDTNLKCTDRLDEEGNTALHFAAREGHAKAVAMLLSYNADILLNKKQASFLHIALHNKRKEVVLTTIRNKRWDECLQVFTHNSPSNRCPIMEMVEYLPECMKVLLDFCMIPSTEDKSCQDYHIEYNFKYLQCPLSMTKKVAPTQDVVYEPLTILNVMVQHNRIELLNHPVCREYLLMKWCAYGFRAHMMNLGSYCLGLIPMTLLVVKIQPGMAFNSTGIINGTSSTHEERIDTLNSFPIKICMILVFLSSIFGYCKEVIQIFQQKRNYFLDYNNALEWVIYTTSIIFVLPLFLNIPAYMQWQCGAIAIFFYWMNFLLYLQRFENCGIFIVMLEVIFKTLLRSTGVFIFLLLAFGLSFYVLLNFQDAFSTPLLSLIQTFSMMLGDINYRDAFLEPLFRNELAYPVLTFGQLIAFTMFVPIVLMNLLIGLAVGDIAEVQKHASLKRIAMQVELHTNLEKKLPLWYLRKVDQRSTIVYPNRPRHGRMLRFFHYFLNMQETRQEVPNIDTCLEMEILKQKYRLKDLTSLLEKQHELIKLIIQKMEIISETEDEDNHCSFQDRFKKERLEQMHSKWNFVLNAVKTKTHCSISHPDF
Sequence of TRPV1 (Q8NER1 whole entry, species assumed): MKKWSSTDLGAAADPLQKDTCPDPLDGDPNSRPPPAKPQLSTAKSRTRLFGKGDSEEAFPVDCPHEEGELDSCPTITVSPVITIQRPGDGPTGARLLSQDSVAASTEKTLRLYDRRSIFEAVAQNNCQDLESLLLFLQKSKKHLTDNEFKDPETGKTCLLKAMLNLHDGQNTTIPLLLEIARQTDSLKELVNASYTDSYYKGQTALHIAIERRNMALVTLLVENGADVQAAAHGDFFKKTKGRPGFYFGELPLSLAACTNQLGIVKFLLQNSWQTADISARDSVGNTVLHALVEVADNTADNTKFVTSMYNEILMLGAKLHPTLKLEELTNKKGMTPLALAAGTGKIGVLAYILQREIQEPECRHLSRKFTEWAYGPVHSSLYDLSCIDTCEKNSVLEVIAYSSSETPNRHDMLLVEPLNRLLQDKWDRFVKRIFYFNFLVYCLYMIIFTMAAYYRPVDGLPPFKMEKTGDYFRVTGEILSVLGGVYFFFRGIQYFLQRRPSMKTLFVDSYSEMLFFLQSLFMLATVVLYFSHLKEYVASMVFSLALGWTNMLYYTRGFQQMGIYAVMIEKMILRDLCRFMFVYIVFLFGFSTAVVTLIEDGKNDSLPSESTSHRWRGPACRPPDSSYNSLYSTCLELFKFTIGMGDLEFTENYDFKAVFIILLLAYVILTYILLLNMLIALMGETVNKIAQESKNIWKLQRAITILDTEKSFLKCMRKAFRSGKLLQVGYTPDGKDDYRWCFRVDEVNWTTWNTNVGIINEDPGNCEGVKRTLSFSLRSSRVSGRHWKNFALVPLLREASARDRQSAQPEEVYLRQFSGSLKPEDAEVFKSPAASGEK
Sequence of TRPV4 (Q9HBA0 whole entry, species assumed): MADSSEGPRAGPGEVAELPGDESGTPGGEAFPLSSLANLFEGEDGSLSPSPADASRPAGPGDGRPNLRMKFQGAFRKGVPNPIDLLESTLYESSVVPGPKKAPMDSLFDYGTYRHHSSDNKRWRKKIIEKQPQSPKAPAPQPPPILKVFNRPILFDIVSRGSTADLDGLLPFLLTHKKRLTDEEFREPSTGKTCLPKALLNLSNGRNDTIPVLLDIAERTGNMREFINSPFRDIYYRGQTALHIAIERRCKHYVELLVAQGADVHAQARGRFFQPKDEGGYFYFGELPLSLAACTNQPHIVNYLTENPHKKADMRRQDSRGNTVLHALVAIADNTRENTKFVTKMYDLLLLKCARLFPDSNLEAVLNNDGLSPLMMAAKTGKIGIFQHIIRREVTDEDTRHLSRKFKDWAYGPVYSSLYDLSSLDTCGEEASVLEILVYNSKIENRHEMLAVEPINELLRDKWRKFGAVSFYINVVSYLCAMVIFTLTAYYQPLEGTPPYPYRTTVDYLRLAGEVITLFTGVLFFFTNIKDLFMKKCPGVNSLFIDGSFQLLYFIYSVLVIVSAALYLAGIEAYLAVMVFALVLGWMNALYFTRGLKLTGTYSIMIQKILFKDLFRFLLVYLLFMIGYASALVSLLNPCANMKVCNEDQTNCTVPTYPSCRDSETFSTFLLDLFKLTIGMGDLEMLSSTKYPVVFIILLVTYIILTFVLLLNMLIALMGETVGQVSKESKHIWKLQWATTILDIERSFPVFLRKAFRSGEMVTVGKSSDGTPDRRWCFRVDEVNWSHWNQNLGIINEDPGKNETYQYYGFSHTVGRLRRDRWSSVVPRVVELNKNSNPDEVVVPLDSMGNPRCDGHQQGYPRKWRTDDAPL

As for `CC(C)c1ccc(NC(=O)Cn2cnc3c2c(=O)n(C)c(=O)n3C)cc1` [HC030031, 2-(1,3-dimethyl-2,6-dioxo-1,2,3,6-tetrahydro-7H-purin-7-yl)-N-(4-isopropylphenyl)acetoamide], the “Effect on barrier recovery acceleration by allyl isothiocyanate or cinnamaldehyde” value in assay [1] (pretreatment with 50 μM antagonist, FIG. 1) is on record as “inhibited”. Further, the “Effect on barrier recovery acceleration by 1 minute of cooling (10 to 15° C.)” value in assay [1] (pretreatment with antagonist, FIG. 2) is listed as “inhibited”. The “Effect on low-temperature-accelerated secretion of lamellar bodies” value in assay [2] is given as “inhibited”.
As to `C=CCN=C=S` [allyl isothiocyanate], the “Barrier recovery (TEWL recovery rate)” value in assay [1] (FIG. 1) is on record as “accelerated”.
`COc1cc(CNC(=O)CCCC/C=C/C(C)C)ccc1O` [capsaicin]: the “Repair of the skin barrier” value in assay [3] (TRPV1 activated after destroying the skin barrier) was “delayed”.
For `Oc1cc2c(cc1O)CN(C(=S)NCCc1ccc(Cl)cc1)CCC2` [capsazepine], the “Effect on delay of barrier repair caused by TRPV1 activation” value in assay [3] (TRPV1 antagonist) is “inhibited”.
`O=CC=Cc1ccccc1` [cinnamaldehyde]: in assay [1] (FIG. 1), the “Barrier recovery (TEWL recovery rate)” value is given as “accelerated”.
For the compound `N.N.N.N.N.N.N.N.N.N.N.N.N.N.[Cl-].[Cl-].[Cl-].[Cl-].[Cl-].[Cl-].[O-2].[O-2].[Ru+3].[Ru+3].[Ru+4]` [ruthenium red], in assay [4], the “Effect on barrier repair acceleration by TRPV4 activation” value is “inhibited”.
